The values that follow come from a melting point compilation (Tetko et al.).

The term melting point denotes the temperature of the solid-liquid transition.

The molecule `C=Cn1ccnc1CO` yielded a melting point of 103 to 105 °C.
As for `CC(=O)N(C)c1nc(C=O)cs1`, the melting point is 164 to 166 °C.
Take `COc1ccc(Cl)cc1C(F)(F)C(=O)O`: the melting point lay in the range of 110 to 112 °C.
Under `NNC(=O)Cc1cccnc1` stands 99 to 101 °C.
On to `Nc1cc(N2CCCS2(=O)=O)ccc1Cl`, for which the melting point was 139 to 141 °C.
Turning to `CC(C)(C)OC(=O)Nc1ccccc1N`, the melting point fell in the range of 105 to 107 °C.
For `Cn1nnc2cc(CCl)ccc21` the value was 83 to 85 °C; for `O=C(O)Cc1ccc(NS(=O)(=O)c2ccc(F)cc2)cc1`, 180 to 182 °C.
`CC1Oc2ncccc2NC1=O` (stereo not drawn) showed a melting point of 225 to 227 °C.
Turning to `Cn1cc(C=O)c(-c2cccnc2)n1`, the melting point was in the range of 86 to 88 °C.
For the molecule `CNC(=O)Cc1noc(CCl)n1`, the melting point is 89 to 91 °C.
`CC1CCN(Cc2ccccc2)c2ccccc2N1` (stereo not drawn): the melting point lay within 68 to 70 °C.
Take `CCCc1nc2ccccc2c(C(=O)O)c1CC`: the melting point lay in the range of 222 to 224 °C.
The molecule `O=C(c1ccc(F)cc1)c1ccc(Cl)cc1` gave a melting point of 115 to 117 °C.
For `OCc1nnc(Cl)s1` the value was 51 to 53 °C; for `COc1cccc(C(N)=NO)c1`, 103 to 105 °C.
For `Cc1ccc(-c2nn(-c3ccccc3)cc2CO)cc1C` the value was 134 to 136 °C; for `CC(C)(C)OC(=O)N1C[C@H](C(=O)O)[C@@H](C(F)(F)F)C1`, 117 to 119 °C.
`O=C1CC2(CCOCC2)CN1` had a melting point of 132 to 134 °C.
Molecule `O=C(O)C1CC1C1CCCCC1` (stereo not drawn) showed a melting point of 52 to 54 °C.
For `O=C(O)c1cc(NCc2ccccc2)ccn1`, the melting point fell in the range of 274 to 276 °C.
`CCOC(=O)/C(C#N)=C/Nc1ccccc1OCC` registered a melting point of 141 to 143 °C.
Under `COC(=O)C(C)NC(=O)Cc1ccc(Cl)cc1` (stereo not drawn) stands 82 to 84 °C; under `O=C(c1ccc(Br)cc1)N1CCNCC1`, 79 to 81 °C.
Under `CC(C)(C)OC(=O)n1ccc(N)n1` stands 129 to 131 °C.
`Nc1ccc(N2CCCC2=O)cn1` showed a melting point of 165 to 167 °C.
`NNc1ccc2ccccc2n1` displayed a melting point of 147 to 151 °C.
Molecule `O=C(O)c1nccnc1C(=O)Nc1ccc(F)cc1` came in with a melting point of 177 to 179 °C.
`N#CCN1CCOCC1`: the melting point fell in the range of 62 to 64 °C.
`Cc1cc2n(n1)C(=O)C(C)C(=O)N2` (stereo not drawn) registered a melting point of 288 to 290 °C.
Take `O=C(O)C(=O)c1cnn(-c2ccccc2)c1`: the melting point lay within 168 to 170 °C.
In turn, `Nc1ncn(Cc2ccc(Cl)cc2)n1` displayed a melting point of 156 to 158 °C.
Consider `Cc1cccc(C2(C(=O)O)CCC2)c1`, for which the melting point fell in the range of 95 to 97 °C.
For the molecule `c1ccc(NCc2ccc3c(c2)OCO3)cc1`, the melting point fell in the range of 78 to 80 °C.
Molecule `COc1ccc(Br)cc1CC(=O)O` returned a melting point of 132 to 134 °C.
For `COC(=O)N1CCc2n[nH]c(=O)cc2C1` the value was 189 to 191 °C; for `O=C1CS(=O)CCN1` (stereo not drawn), 119 to 121 °C.
As for `CC(Oc1cccc(C(C)(C)C)c1)C(=O)O` (stereo not drawn), the melting point fell in the range of 67 to 69 °C.
As for `COC(=O)C(=O)CC(=O)c1ccccc1F`, the melting point lay within 81 to 83 °C.
Turning to `Cc1cccc(NS(=O)(=O)c2ccc(N)cc2)n1`, the melting point is 223 to 225 °C.
For the molecule `O=Cc1cnc(-c2cccs2)s1`, the melting point was 113 to 115 °C.
Molecule `Cc1nc2c([nH]1)CCC(C(=O)O)C2` (stereo not drawn) returned a melting point of 229 to 231 °C.
In turn, `CC(=O)Nc1ccc(-c2csc(N)n2)c(F)c1` showed a melting point of 204 to 206 °C.
`O=C(O)c1nn(-c2ccccc2F)cc1O` displayed a melting point of 202 to 204 °C.
For `Cc1sc2nc(CCl)nc(Cl)c2c1C` the value was 142 to 144 °C.
As to `O=C(O)CCc1csc2nc(C3CC3)cn12`, the melting point lay within 240 to 242 °C.
Under `Cc1ccc(CN2CCSCC2)cc1N` stands 136 to 138 °C.
`O=C(O)C1CC1c1cccc(C(F)(F)F)c1` (stereo not drawn) yielded a melting point of 84 to 86 °C.
Take `Cc1nn(-c2ccc(Cl)cc2Cl)c(C)c1CC(=O)O`: the melting point is 186 to 188 °C.
Consider `CC(C)(C)C(=O)N1CSCC1C(=O)O` (stereo not drawn), for which the melting point was 118 to 120 °C.
`CCCNC(=O)c1ccc(Cl)nc1` registered a melting point of 108 to 110 °C.
Molecule `CSc1nc(Cl)ccc1C(=O)O` showed a melting point of 189 to 191 °C.
In turn, `O=C(CCl)c1ccc2c(c1)CCCN2C(=O)c1ccccc1` displayed a melting point of 178 to 180 °C.
In the case of `O=C(O)c1ccccc1OCc1ccc(Br)cc1`, the melting point was in the range of 119 to 121 °C.
With `CC(C)(C)OC(=O)NC1CCN(CC(=O)O)CC1`, the melting point lay within 204 to 206 °C.
`NS(=O)(=O)Cc1ccc(F)cc1F`: the melting point was 139 to 141 °C.
On to `Cn1cnnc1-c1ccccc1N`, for which the melting point lay within 133 to 135 °C.
In turn, `Nc1cc(Br)ccc1[N+](=O)[O-]` displayed a melting point of 143 to 145 °C.
For `O=S(=O)(c1ccc(Cl)nc1)N(Cc1ccccc1)Cc1ccccc1` the value was 106 to 108 °C; for `CCOC(=O)c1c(-c2ccc(OC)c(OC)c2)csc1N`, 223 to 225 °C.
For `N#Cc1ccc(NC(=O)NC(CCC(=O)O)C(=O)O)cc1` (stereo not drawn) the value was 169 to 171 °C; for `CC(C)(C)NC(=O)c1ccc(N)cc1`, 124 to 126 °C.
For `Cc1nc(NC(=O)NN)no1` the value was 288 to 290 °C; for `CON(C)C(=O)Cc1ccc(Cl)cc1`, 45 to 47 °C.
In turn, `O=S(=O)(c1ccc2c(c1)NCC2)N1CCCC1` displayed a melting point of 181 to 183 °C.
`Cc1nc(CC(C)C)c(C(=O)O)s1`: the melting point was in the range of 116 to 118 °C.
`NC(=O)CCNC(=O)OCc1ccccc1` registered a melting point of 164 to 166 °C.
In turn, `Cn1cc(C=O)c(-c2ccncc2)n1` yielded a melting point of 131 to 133 °C.
On to `O=C(O)c1cc2[nH]nnc2cc1F`, for which the melting point lay within 268 to 270 °C.
The molecule `Cc1nc(CSc2ccc(C(=O)O)cc2)cs1` showed a melting point of 87 to 90 °C.
`N#CCCNc1ccc2c(c1)OCCO2` had a melting point of 83 to 85 °C.
In turn, `COC(=O)c1cc(Oc2ccc(F)cc2)c(F)cc1N` yielded a melting point of 97 to 99 °C.
With `Nc1ccc(N2CCCCC2)c(Cl)c1`, the melting point fell in the range of 53 to 55 °C.
Under `NS(=O)(=O)C1CCCCC1` stands 91 to 93 °C.
Under `COc1ccc(N2C(=O)CC(=O)NC2=S)cc1` stands 241 to 243 °C.
For `NC(=S)C1(NC(=O)c2ccccc2)CCCC1` the value was 189 to 191 °C; for `O=C(O)c1csc(C(=O)CCl)c1`, 147 to 149 °C; for `O=S(=O)(Cl)CCOc1ccc(F)cc1`, 34 to 36 °C.
As to `COc1nc(N)n[nH]1`, the melting point fell in the range of 165 to 167 °C.
In turn, `CS(=O)(=O)C1CSCCN1` (stereo not drawn) registered a melting point of 115 to 117 °C.
As for `O=Cc1cccc(OCc2occc2C(=O)O)c1`, the melting point was in the range of 123 to 125 °C.
On to `O=C(O)c1cccnc1Oc1cccc(Br)c1`, for which the melting point lay in the range of 167 to 169 °C.
As to `Cc1cc(S(=O)(=O)Cl)cc(C(=O)O)c1C`, the melting point was 179 to 181 °C.
In turn, `Nc1ccccc1C(=O)Nc1ccc2c(c1)OCO2` yielded a melting point of 85 to 87 °C.
`O=C1c2ccccc2S(=O)(=O)N1CCBr`: the melting point was 94 to 96 °C.
Regarding `O=C1CNC(=O)N1CCCCl`, the melting point lay within 90 to 92 °C.
In turn, `CCOC(=O)c1nc(-c2ccc(Cl)c(Cl)c2)oc1C` gave a melting point of 99 to 101 °C.
For `COc1cc2nc(C)oc(=O)c2cc1OC` the value was 187 to 189 °C; for `O=C(O)[C@@H]1CCCN1C(=O)c1ccccn1`, 165 to 167 °C; for `Brc1ccc(SC2CCOCC2)nc1`, 60 to 62 °C.
As to `CC(C)(C)c1noc(C(N2CCOCC2)N2CCOCC2)n1`, the melting point lay in the range of 80 to 82 °C.
In the case of `NC(=O)C1CNc2ccccc2N1` (stereo not drawn), the melting point lay within 99 to 101 °C.
In turn, `NNC(=O)CCc1ccccc1O` yielded a melting point of 166 to 168 °C.
Regarding `COc1cc(C=O)ccc1S`, the melting point lay in the range of 43 to 45 °C.
On to `Clc1nccc(N2CCOCC2)n1`, for which the melting point fell in the range of 111 to 113 °C.
In turn, `O=C(O)C12CC3CC(C1)CC(c1ccccc1)(C3)C2` displayed a melting point of 161 to 163 °C.
Take `CC(C)S(=O)(=O)Nc1ccccc1F`: the melting point lay in the range of 52 to 54 °C.
Under `COc1cccc(NCCC(=O)O)c1` stands 87 to 89 °C; under `COC(=O)c1c(O)cc(=O)n2c1CCCCC2`, 222 to 224 °C.
Molecule `CCOC(=O)c1c(N)sc2c1CCCS2=O` (stereo not drawn) displayed a melting point of 189 to 191 °C.
Take `CC(C)c1cc(Br)cc([N+](=O)[O-])c1N`: the melting point is 39 to 41 °C.
Regarding `CN1CCc2nc(N)sc2C1`, the melting point was in the range of 168 to 170 °C.
Consider `N#Cc1cccc(Br)c1N=C=O`, for which the melting point was 64 to 66 °C.
The molecule `CC(Cl)C(=O)NCC(=O)c1ccccc1` (stereo not drawn) showed a melting point of 86 to 88 °C.
`Nc1cc([N+](=O)[O-])ccc1Sc1cccs1`: the melting point fell in the range of 94 to 96 °C.
Molecule `O=C(O)CC1C=CS(=O)(=O)C1` (stereo not drawn) registered a melting point of 81 to 83 °C.
In turn, `Cc1ccc(C2(C)NC(=O)N(CC(=O)O)C2=O)cc1` (stereo not drawn) showed a melting point of 206 to 208 °C.
Molecule `Brc1cnc2c(c1)NCCO2` registered a melting point of 149 to 151 °C.
Turning to `Cc1ccc(S(=O)(=O)Cl)cc1C`, the melting point fell in the range of 36 to 38 °C.
In turn, `O=C(CCl)NCc1ccccc1S(=O)(=O)N1CCCCC1` registered a melting point of 89 to 91 °C.
Under `O=C(O)c1ccccc1SCC(=O)N1CCCC1` stands 115 to 117 °C; under `Cc1occc1-c1nnc(S)n1C`, 118 to 120 °C; under `O=c1[nH]c2ccc(NCc3ccccc3)cc2[nH]1`, 242 to 244 °C.
As to `Nc1cc(C(=O)N2CCCC2)ccc1Cl`, the melting point was 137 to 139 °C.
Under `Cc1[nH]c2ncnn2c(=O)c1CCO` stands 267 to 269 °C; under `CC(C)(C)NC(N)=S`, 171 to 175 °C; under `COC(=O)Cc1ccc([N+](=O)[O-])s1`, 50 to 52 °C.
The molecule `COc1cccc(-n2c(S)nc(O)cc2=O)c1` had a melting point of 197 to 199 °C.
Under `O=C(O)c1csc(Br)c1` stands 137 to 139 °C; under `CCOC(=O)C(=O)CC(=O)c1ccc2ccccc2c1`, 51 to 53 °C.
For `CCOC(=O)C(=O)Nc1ccc([N+](=O)[O-])cc1` the value was 172 to 174 °C; for `Cc1nnnn1-c1ccc(F)c(N)c1`, 156 to 158 °C.
`O=C(O)c1ccc2c(c1)COC2` yielded a melting point of 164 to 166 °C.
